Where “and” joins values, the source holds several entries; their conditions need not be identical. Equal entries are not always repeated. Where two headings read alike, the source gives them in different places. Each block holds one molecule with its values, some of them ahead of it. Positions of bridges follow the written chain, without caps; N, C: chain ends. Residues, ends and D or L forms follow the SMILES beside them.
Columns and labels:
Bovine β-trypsin = target: T1, Bovine β-trypsin (Bos taurus, UniProt P00760); assay: Trypsin inhibition assay (colorimetric, benzoylarginine-4-nitroanilide); format: biochemical
T1 sequence (P00760 24-246): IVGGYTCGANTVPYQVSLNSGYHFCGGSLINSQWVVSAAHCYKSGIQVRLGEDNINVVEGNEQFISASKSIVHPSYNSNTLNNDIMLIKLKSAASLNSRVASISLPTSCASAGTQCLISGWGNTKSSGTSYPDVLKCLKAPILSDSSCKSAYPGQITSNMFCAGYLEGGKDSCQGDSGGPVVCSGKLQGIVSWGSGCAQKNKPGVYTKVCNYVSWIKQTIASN
Procedure: Based on the classification of bevuTI-I as putative trypsin inhibitor of the M. jalapa trypsin inhibitor family, enzymatic inhibition assays were performed.[33] Bovine β-trypsin and bevuTI-I were used in a colorimetric trypsin inhibition assay to measure concentration-dependent inhibition.
The trypsin inhibition assay was performed in 96-well microtiter plates. To 140 μL of a 20 mM Tris-HCl buffer (pH 8.0) was added 20 μL of inhibitor (dissolved in buffer)/buffer (negative control). Afterward, 20 μL of bovine trypsin (0.125 mg/mL, Sigma-Aldrich) was added, and the plate was incubated for 10 min at 22 °C. A volume of 20 μL of benzoylarginine-4-nitroanilide hydroxychloride (Bachem, Bubendorf, Switzerland) dissolved in 20% DMSO at a concentration of 900 μM was added automatically with the dispenser of the Synergy H4 Hybrid reader (BioTek, VM, USA). The rate of enzymatic reaction with different concentrations of inhibitor was measured for 1 h every 5 min at a wavelength of 410 nm. For calculations, the linear portion of data, corresponding to the initial rate of reaction, was used. The highest rate was set to 100% activity. A nonlinear regression (log inhibitor vs normalized response) was performed with GraphPad Prism version 8.0.0 for Windows (GraphPad Software, CA, USA). The top and bottom parameters were set to 100% and 0%, respectively.

human POP = target: T2, human POP (Homo sapiens, UniProt P48147); assay: Prolyl oligopeptidase (POP) inhibition assay (fluorescence, Z-Gly-Pro-AMC); format: biochemical; details: synthetic bevuTI-I; recombinant human POP 50 ng, Z-Gly-Pro-AMC 45 μM, 20 mM HEPES pH 7.4, 150 mM NaCl, 1 mM EDTA, 0.5 mM DTT, ex 360/em 450 nm; mean ± SD of three biological replicates
T2 construct: The full-length cDNA was cloned into the BamHI and EcoRI cloning sites of the commercially available expression plasmid pGEX-6P1; GST (from pGEX-6P1) (N, cleaved yes); made in house; host or cells: E. coli BL21
T2 sequence (P48147 1-710): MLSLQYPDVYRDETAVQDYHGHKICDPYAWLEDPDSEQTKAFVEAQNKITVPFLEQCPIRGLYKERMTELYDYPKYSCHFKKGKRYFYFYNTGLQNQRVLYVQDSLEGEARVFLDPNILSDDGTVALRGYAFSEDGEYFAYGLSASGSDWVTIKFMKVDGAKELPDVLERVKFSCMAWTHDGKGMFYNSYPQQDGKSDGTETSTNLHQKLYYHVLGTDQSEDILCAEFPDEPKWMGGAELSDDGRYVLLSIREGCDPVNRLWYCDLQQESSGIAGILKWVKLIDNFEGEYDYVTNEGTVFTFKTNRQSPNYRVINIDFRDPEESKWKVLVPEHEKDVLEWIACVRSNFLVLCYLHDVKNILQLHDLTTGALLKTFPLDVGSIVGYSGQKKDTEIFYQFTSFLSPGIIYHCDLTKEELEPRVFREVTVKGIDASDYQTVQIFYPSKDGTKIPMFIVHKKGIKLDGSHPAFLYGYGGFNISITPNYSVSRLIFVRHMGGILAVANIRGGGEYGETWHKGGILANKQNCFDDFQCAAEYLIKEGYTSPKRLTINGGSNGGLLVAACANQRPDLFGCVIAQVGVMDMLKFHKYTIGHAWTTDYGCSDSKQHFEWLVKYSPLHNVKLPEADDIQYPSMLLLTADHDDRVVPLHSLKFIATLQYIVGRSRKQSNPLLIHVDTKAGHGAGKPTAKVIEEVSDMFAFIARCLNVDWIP
Excerpt: As it was previously reported, plant cystine knot peptides belonging to the cyclotide family have the ability to inhibit human prolyl endopeptidase.[33] Thus, we were interested whether the bevuTI-I was also able to inhibit this enzyme. Like psysol-2, bevuTI-I has three proline residues and presumably the same cysteine connectivity.
Recombinant human POP (NM_002726.4) was produced in E. coli BL21 (New England Biolabs, MA, USA). The full-length cDNA was cloned into the BamHI and EcoRI cloning sites of the commercially available expression plasmid pGEX-6P1 by a customized manufacturer service from GenScript (Leiden, The Netherlands). […] The protein concentration of the eluate was determined by the bicinchoninic acid assay (ThermoFisher Scientific), and aliquots of stock protease in storage buffer (including 20% glycerol) were kept at −80 °C. […] Enzyme activity was measured by fluorescence signal as a result of free fluorophore from the Z-Gly-Pro-AMC substrate with an excitation of 360 ± 20 nm and emission of 450 ± 20 nm. Kinetic inhibition data were recorded in 5 min intervals, and the amount of inhibition was calculated from the steepness of the linear initial velocity. […] Concentration–response experiments were evaluated with a fitted nonlinear regression function in GraphPad Prism.

Molecule: CC[C@H](C)[C@@H]1NC(=O)[C@H](CCCNC(=N)N)NC(=O)[C@H](CC(C)C)NC(=O)[C@H](Cc2c[nH]c3ccccc23)NC(=O)[C@H](CCC(N)=O)NC(=O)[C@H](Cc2c[nH]cn2)NC(=O)[C@@H]2CCCN2C(=O)[C@H](C(C)C)NC(=O)[C@@H]2CSSC[C@@H]3NC(=O)[C@H]([C@@H](C)CC)NC(=O)[C@H]([C@@H](C)O)NC(=O)CNC(=O)[C@H](CO)NC(=O)[C@@H]4CCCN4C(=O)[C@H]([C@@H](C)O)NC(=O)[C@@H](N)CSSC[C@H](NC(=O)[C@H](CSSC[C@@H](C(=O)N[C@@H](C)C(=O)O)NC(=O)[C@H](C(C)C)NC(=O)[C@H](Cc4ccccc4)NC1=O)NC(=O)[C@H](CCC(N)=O)NC(=O)[C@H](CCC(=O)O)NC(=O)[C@@H]1CCCN1C(=O)[C@H](C)NC(=O)[C@H](CCC(=O)O)NC(=O)[C@@H]1CCCN1C(=O)[C@H](CO)NC3=O)C(=O)N[C@@H](CO)C(=O)N[C@@H](CC(N)=O)C(=O)N[C@@H](CO)C(=O)N2 [bevuTI-I, Beta vulgaris trypsin inhibitor I] (H-CTPSGTICSPEAPEQCCSNSCVPHQWLRIFVCA-OH; disulfide 1-17, 8-21, 16-32)
IC50 (Bovine β-trypsin): 0.471 µM and 0.568 µM | IC50 (human POP): 11 ± 5.3 µM

IC50 (Bovine β-trypsin; control inhibitor (Glycine max Kunitz-type), bovine trypsin, 20 mM Tris-HCl pH 8.0, 10 min pre-incubation at 22 °C, 410 nm, read-out: IC50, trypsin inhibition): 0.198 ± 0.072 µM
B1: Kunitz-type soybean trypsin inhibitor: well-characterized Kunitz-type soybean trypsin inhibitor, used as control (protein, UniProt P01070 25-205, looked up)
Trypsin inhibitor A: DFVLDNEGNPLENGGTYYILSDITAFGGIRAAPTGNERCPLTVVQSRNELDKGIGTIISSPYRIRFIAEGHPLSLKFDSFAVIMLCVGIPTEWSVVEDLPEGPAVKIGENKDAMDGWFRLERVSDDEFNNYKLVFCPQQAEDDKCGDIGISIDHDDGTRRLVVSKNKPLVVQFQKLDKESL

From publication PMC7705960, “Discovery of a Beetroot Protease Inhibitor to Identify and Classify Plant-Derived Cystine Knot Peptides” (Journal of Natural Products, 2020)
